# ChEMBL document CHEMBL4402579, “Identification of Potent In Vivo Autotaxin Inhibitors that Bind to Both Hydrophobic Pockets and Channels in the Catalytic Domain” (J Med Chem, 2020)
# Activity calls are given as the source filed them. No cut-off for these calls is given here.
# Assays:
# Autotaxin [1] = biological target: Autotaxin (Mus musculus, UniProt Q9R1E6); assay: Inhibition of ATX in mouse plasma after 2 hrs by LC-MS/MS analysis; assay type: cell-free
# Autotaxin (Mus musculus) [2] = biological target: Autotaxin (Mus musculus) (UniProt Q9R1E6); assay: Inhibition of ATX in mouse plasma assessed as reduction in LPA prodution at 10 uM after 3 hrs by LC-MS/MS analysis; assay type: cell-free
# Autotaxin (Mus musculus) [3] = biological target: Autotaxin (Mus musculus) (UniProt Q9R1E6); assay: Inhibition of mouse ATX expressed in one-cell stage zebra fish embryos assessed as rescue of cardia bifida phenotype at 10 uM incubated for 12 to 24 hrs post fertilization in presence of Ki16425 by whole mount in situ hybridization based microscopic analysis relative to control
# Danio rerio = organism: Danio rerio; assay: Inhibition of AB/TU zebra fish ATX expressed in one-cell stage zebra fish embryos assessed as rescue of carida bifida phenotype at 10 uM incubated for 12 to 24 hrs post fertilization in presence of Ki16425 by whole mount in situ hybridization based microscopic analysis relative to control
# Autotaxin [4] = biological target: T1, Autotaxin (Homo sapiens, UniProt Q13822); assay: Inhibition of ATX (unknown origin) expressed in human HEK293 cells using TG-mTMP as substrate after 2 hrs by fluorescence based plate reader assay
# Autotaxin (Mus musculus) [5] = biological target: Autotaxin (Mus musculus) (UniProt Q9R1E6); assay: Inhibition of ATX in mouse plasma assessed as reduction in LPA prodution after 3 hrs by LC-MS/MS analysis; assay type: cell-free
# Mus musculus = assay: In vivo inhibition of ATX in C57BL/6J mouse assessed as reduction in serum LPA level at 4 mg/kg, iv after 15 mins to 3 hrs by LC-MS/MS analysis; assay type: functional, organism-based
# Autotaxin [6] = biological target: T1, Autotaxin; assay: Inhibition of ATX (unknown origin)-mediated cell migration in human MDA-MB-231 cells assessed as reduction in cell motility after 3 hrs by Diff-Quick staining based microplate reader analysis
compound,measurement,setting,value
CCOC(=O)Cn1c(C)cc(=O)n2cc(-c3ccc(N)cc3)nc12,IC50,Autotaxin [1]; read-out: IC50,> 10000 nM
CCOCCn1c(C)cc(=O)n2cc(-c3ccc(Cl)cc3)nc12,IC50,Autotaxin [1]; read-out: IC50,11 nM
same,inhibition,Autotaxin (Mus musculus) [2],Active
CCN(C)C(=O)Cn1c(C)cc(=O)n2cc(-c3ccc(Cl)cc3)nc12,IC50,Autotaxin [1]; read-out: IC50,220 nM
CCNC(=O)Cn1c(C)cc(=O)n2cc(-c3ccc(Cl)cc3)nc12,IC50,Autotaxin [1]; read-out: IC50,370 nM
same,inhibition,Autotaxin (Mus musculus) [2],inactive
CCN1CCN(C2=NC(=O)/C(=C/c3ccc(Cl)cc3)S2)CC1,inhibition,Autotaxin (Mus musculus) [3],95%
same,inhibition,Danio rerio,10%
CCCCCCCCCCCCCCCC(=O)n1c(C)cc(=O)n2cc(-c3ccc(Cl)cc3)nc12,IC50,Autotaxin [1],Nd(Insoluble)
Cc1cc(=O)n2cc(-c3ccc(Cl)cc3)nc2n1CC[N+](C)(C)C,IC50,Autotaxin [1]; read-out: IC50,> 50000 nM
Cc1cc(=O)n2cc(-c3ccc(Cl)cc3)nc2n1CC(=O)OC(C)(C)C,IC50,Autotaxin [1]; read-out: IC50,90 nM
same,inhibition,Autotaxin (Mus musculus) [2],inactive
Cc1nc2ccccn2c(=O)c1Cc1ccc(Cl)cc1,inhibition,Autotaxin (Mus musculus) [3],91%
same,inhibition,Danio rerio,6%
CCCCCCCCn1c(C)cc(=O)n2cc(-c3ccc(Cl)cc3)nc12,IC50,Autotaxin [1]; read-out: IC50,57 nM
CCOC(=O)Cn1c(C)cc(=O)n2cc(-c3ccc(Cl)c(Cl)c3)nc12,IC50,Autotaxin [1]; read-out: IC50,79 nM
Cc1ccc(-c2cn3c(O)cc(C)nc3n2)cc1,IC50,Autotaxin [1]; read-out: IC50,> 50000 nM
same,inhibition,Autotaxin (Mus musculus) [2],inactive
Cc1cc(=O)n2cc(-c3ccc(Cl)cc3)nc2n1Cc1ccccc1,IC50,Autotaxin [1]; read-out: IC50,31 nM
same,inhibition,Autotaxin (Mus musculus) [2],Active
CCOC(=O)Cn1c(C)cc(=O)n2cc(-c3ccc(I)cc3)nc12,IC50,Autotaxin [1]; read-out: IC50,19 nM
Cc1cc(O)n2cc(-c3cccc(Br)c3)nc2n1,IC50,Autotaxin [1]; read-out: IC50,> 50000 nM
same,inhibition,Autotaxin (Mus musculus) [2],inactive
Cc1cc(=O)n2cc(-c3ccc(Cl)cc3)nc2n1CCS(=O)(=O)O,IC50,Autotaxin [1]; read-out: IC50,> 50000 nM
CCCCCn1c(C)cc(=O)n2cc(-c3ccc(F)cc3)nc12,IC50,Autotaxin [1]; read-out: IC50,71 nM
same,inhibition,Autotaxin (Mus musculus) [2],Active
Cc1cc(=O)n2cc(-c3ccc(Cl)cc3)nc2n1C,IC50,Autotaxin [1]; read-out: IC50,180 nM
CCCCCCCCCC(=O)n1c(C)cc(=O)n2cc(-c3ccc(Cl)cc3)nc12,IC50,Autotaxin [1]; read-out: IC50,160 nM
CCOC(=O)Cn1c(C)cc(=O)n2cc(-c3cccc(N)c3)nc12,IC50,Autotaxin [1]; read-out: IC50,> 10000 nM
CCCCCCCCCn1c(C)cc(=O)n2cc(-c3ccc(Cl)cc3)nc12,IC50,Autotaxin [1]; read-out: IC50,120 nM
CCCCCn1c(C)cc(=O)n2cc(-c3ccc(C)cc3)nc12,IC50,Autotaxin [1]; read-out: IC50,44 nM
same,inhibition,Autotaxin (Mus musculus) [2],Active
CN1CCN(C2=NC(=O)/C(=C/c3ccc(Cl)c(Cl)c3)S2)CC1,IC50,Autotaxin [4],180 nM
same,inhibition,Autotaxin (Mus musculus) [3],96%
same,inhibition,Danio rerio,3%
CCOC(=O)Cn1c(C)cc(=O)n2cc(-c3ccc(OC)cc3)nc12,IC50,Autotaxin [1]; read-out: IC50,49 nM
same,inhibition,Autotaxin (Mus musculus) [2],inactive
CCOC(=O)Cn1c(C)cc(=O)n2cc(-c3cccc([N+](=O)[O-])c3)nc12,IC50,Autotaxin [1]; read-out: IC50,500 nM
CCn1c(C)cc(=O)n2cc(-c3ccc(Cl)cc3)nc12,IC50,Autotaxin [1]; read-out: IC50,40 nM
Cc1cc(=O)n2cc(-c3ccc(Cl)cc3)nc2n1CC(=O)O,IC50,Autotaxin [1]; read-out: IC50,7700 nM
same,inhibition,Autotaxin (Mus musculus) [2],inactive
COC(=O)Cn1c(C)cc(=O)n2cc(-c3ccc(Cl)cc3)nc12,IC50,Autotaxin [1]; read-out: IC50,26 nM
same,inhibition,Autotaxin (Mus musculus) [2],inactive
Cc1cc(O)n2cc(-c3ccc(Cl)c(Cl)c3)nc2n1,IC50,Autotaxin [1]; read-out: IC50,> 50000 nM
same,inhibition,Autotaxin (Mus musculus) [2],inactive
Cc1cc(Cl)n2cc(-c3ccc(Cl)cc3)nc2n1,IC50,Autotaxin [1]; read-out: IC50,> 50000 nM
CCCCCCCn1c(C)cc(=O)n2cc(-c3ccc(Cl)cc3)nc12,IC50,Autotaxin [1]; read-out: IC50,16 nM
same,inhibition,Autotaxin (Mus musculus) [2],Active
Cc1cc(O)n2cc(-c3ccc(Cl)cc3)nc2n1,IC50,Autotaxin [1]; read-out: IC50,> 50000 nM
same,inhibition,Autotaxin (Mus musculus) [2],inactive
Cc1cc(O)n2cc(-c3ccc(F)cc3)nc2n1,IC50,Autotaxin [1]; read-out: IC50,> 50000 nM
same,inhibition,Autotaxin (Mus musculus) [2],inactive
O=C1N=C(N2CCN(Cc3cccc(B(O)O)c3)CC2)S/C1=C\c1ccc(Cl)c(Cl)c1,IC50,Autotaxin [4],13 nM
same,inhibition,Autotaxin (Mus musculus) [3],98%
Cc1cc(=O)n2cc(-c3ccc(Cl)cc3)nc2n1CC(=O)OCc1ccccc1,IC50,Autotaxin [1]; read-out: IC50,56 nM
same,inhibition,Autotaxin (Mus musculus) [2],inactive
CCC(=O)Cn1c(C)cc(=O)n2cc(-c3ccc(Cl)cc3)nc12,IC50,Autotaxin [1]; read-out: IC50,37 nM
same,inhibition,Autotaxin (Mus musculus) [2],Active
CCOC(=O)Cn1c(C)cc(=O)n2cc(-c3cccc(Br)c3)nc12,IC50,Autotaxin [1]; read-out: IC50,4000 nM
CCOC(=O)Cn1c(C)cc(=O)n2cc(-c3ccc(F)cc3)nc12,IC50,Autotaxin [1]; read-out: IC50,31 nM
same,inhibition,Autotaxin (Mus musculus) [2],inactive
Cc1cc(O)n2cc(-c3ccc([N+](=O)[O-])cc3)nc2n1,IC50,Autotaxin [1]; read-out: IC50,> 50000 nM
same,inhibition,Autotaxin (Mus musculus) [2],inactive
CCOC(=O)Cn1c(C)cc(=O)n2cc(-c3ccc(Br)cc3)nc12,IC50,Autotaxin [1]; read-out: IC50,13 nM
same,inhibition,Autotaxin (Mus musculus) [2],inactive
CCOC(=O)Cn1c(C)cc(=O)n2cc(-c3ccccc3)nc12,IC50,Autotaxin [1]; read-out: IC50,72 nM
Cc1cc(O)n2cc(-c3cccc([N+](=O)[O-])c3)nc2n1,IC50,Autotaxin [1]; read-out: IC50,> 50000 nM
same,inhibition,Autotaxin (Mus musculus) [2],inactive
CCCCCn1c(C)cc(=O)n2cc(-c3ccc(Cl)cc3)nc12,IC50,Autotaxin [1]; read-out: IC50,9.4 nM
same,inhibition,Autotaxin (Mus musculus) [2],Active
same,inhibition,Autotaxin (Mus musculus) [5],Dose-dependent effect
same,inhibition,Mus musculus,Active
COc1ccc(-c2cn3c(O)cc(C)nc3n2)cc1,IC50,Autotaxin [1]; read-out: IC50,> 50000 nM
same,inhibition,Autotaxin (Mus musculus) [2],inactive
CCOC(=O)Cn1c(C)cc(=O)n2cc(-c3ccc(Cl)cc3)nc12,IC50,Autotaxin [4],4.2 nM
same,inhibition,Autotaxin (Mus musculus) [3],93%
same,inhibition,Danio rerio,8%
same,IC50,Autotaxin [1]; read-out: IC50,3.3 nM
same,inhibition,Autotaxin (Mus musculus) [2],inactive
Cc1cc(O)n2cc(-c3ccccc3)nc2n1,IC50,Autotaxin [1]; read-out: IC50,> 50000 nM
same,inhibition,Autotaxin (Mus musculus) [2],inactive
CCCCCCn1c(C)cc(=O)n2cc(-c3ccc(Cl)cc3)nc12,IC50,Autotaxin [1]; read-out: IC50,9.9 nM
same,inhibition,Autotaxin (Mus musculus) [2],Active
same,inhibition,Autotaxin (Mus musculus) [5],Dose-dependent effect
same,inhibition,Autotaxin [6],Dose-dependent effect
same,inhibition,Mus musculus,Active
Cc1cc(=O)n2cc(-c3ccc(Cl)cc3)nc2n1C1CCCCC1,IC50,Autotaxin [1]; read-out: IC50,73 nM
same,inhibition,Autotaxin (Mus musculus) [2],Active
COc1cc(C)nc2nc(-c3ccc(Cl)cc3)cn12,IC50,Autotaxin [1]; read-out: IC50,> 50000 nM
CCCCn1c(C)cc(=O)n2cc(-c3ccc(Cl)cc3)nc12,IC50,Autotaxin [1]; read-out: IC50,15 nM
same,inhibition,Autotaxin (Mus musculus) [2],Active
Cc1cc(O)n2cc(-c3ccc(Br)cc3)nc2n1,IC50,Autotaxin [1]; read-out: IC50,> 50000 nM
same,inhibition,Autotaxin (Mus musculus) [2],inactive
CCCCCn1c(C)cc(=O)n2cc(-c3ccc(Br)cc3)nc12,IC50,Autotaxin [1]; read-out: IC50,23 nM
same,inhibition,Autotaxin (Mus musculus) [2],Active
same,inhibition,Autotaxin (Mus musculus) [5],Dose-dependent effect
CC(=O)OCn1c(C)cc(=O)n2cc(-c3ccc(Cl)cc3)nc12,IC50,Autotaxin [1]; read-out: IC50,30 nM
CCOC(=O)Cn1c(C)cc(=O)n2cc(-c3ccc([N+](=O)[O-])cc3)nc12,IC50,Autotaxin [1]; read-out: IC50,14 nM
CCCCCCCN/C=C1\C(=O)N(c2ccc(F)cc2)C(=O)N=C1O,inhibition,Autotaxin (Mus musculus) [3],94%
same,inhibition,Danio rerio,1%
CCCn1c(C)cc(=O)n2cc(-c3ccc(Cl)cc3)nc12,IC50,Autotaxin [1]; read-out: IC50,21 nM
